Test results taken from article PMC2841507 (Journal of medicinal chemistry, 2010).

Assays:
human DAT = human DAT (Homo sapiens, UniProt Q01959); assay: cell-based; assay type: cell-based
human α3β4*-nAChR = human α3β4*-nAChR (Homo sapiens, UniProt P30926+P32297); assay: 86Rb+ efflux assay, SH-SY5Y cells; assay type: cell-based
human NET = human NET (Homo sapiens, UniProt P23975); assay: cell-based; assay type: cell-based
human α4β2-nAChR = human α4β2-nAChR (Homo sapiens, UniProt P17787+P43681); assay: 86Rb+ efflux assay, SH-EP1-hα4β2 cells; assay type: cell-based
[1] = target: human muscle-type α1β1γδ- (α1*-) nAChR (Homo sapiens, UniProt P02708+P07510+P11230+Q07001); assay: 86Rb+ efflux assay, TE671/RD cells; assay type: cell-based
human α4β4-nAChR = human α4β4-nAChR (Homo sapiens, UniProt P30926+P43681); assay: 86Rb+ efflux assay, SH-EP1-hα4β4 cells; assay type: cell-based
[2] = test system: nicotine-induced antinociception (tail-flick); assay: Blockade of nicotine-induced antinociception, tail-flick test; assay type: in vivo, mice; conditions: ratio of AD50 values, relative to 2a

| SMILES | IC50 (human DAT) | IC50 (human α3β4*-nAChR) | IC50 (human NET) | IC50 (human α4β2-nAChR) | times more potent than 2a in blocking nicotine-induced antinociception in the tail-flick test [2] | further results |
| --- | --- | --- | --- | --- | --- | --- |
| CC(C(=O)c1cccc(F)c1)N1CCCC1 (stereo not drawn) [Compound 2aa, 2-(N-Pyrrolidinyl)-3’-fluoropropiophenone] | 0.156 ± 0.046 µM | 35 µM | 0.135 ± 0.036 µM | 71 µM | – | fold more potent than 2a in inhibition of DA uptake (human DAT): 4 fold; fold more potent than 2a in inhibition of NE uptake (human NET): 14 fold |
| CC(C(=O)c1cccc(Br)c1)N1CCCC1 (stereo not drawn) [Compound 2bb, 2-(N-Pyrrolidinyl)-3’-bromopropiophenone] | 0.75 ± 0.173 µM | 11 µM | 1.18 ± 0.27 µM | 74 µM | – | IC50 [1]: 19 µM; IC50 (human α4β4-nAChR): 64 µM |
| CC(NC(C)(C)C)C(=O)c1cccc(Br)c1 (stereo not drawn) [Compound 2c] | – | – | – | – | ~ 10 fold | – |
| Cc1cccc(C(=O)C(C)N2CCCC2)c1 (stereo not drawn) [Compound 2cc, 2-(N-Pyrrolidinyl)-3’-methylpropiophenone] | 0.414 ± 0.089 µM | 11 µM | 0.577 ± 0.061 µM | 56 µM | – | IC50 [1]: 53 µM |
| Cc1cccc(C(=O)C(C)NC(C)(C)C)c1 (stereo not drawn) [Compound 2d] | – | – | – | – | 24 fold | – |
| COc1cccc(C(=O)C(C)N2CCCC2)c1 (stereo not drawn) [Compound 2dd, 2-(N-Pyrrolidinyl)-3’-methoxypropiophenone] | 0.452 ± 0.082 µM | 16 µM | 0.718 ± 0.13 µM | 57 µM | – | IC50 [1]: 87 µM |
| CC(C(=O)c1cccc([N+](=O)[O-])c1)N1CCCC1 (stereo not drawn) [Compound 2ee, 2-(N-Pyrrolidinyl)-3’-nitropropiophenone] | 10 ± 1.9 µM | 53 µM | 4.1 ± 0.54 µM | – | – | – |
| CC(C(=O)c1cccc(Cl)c1)N1CCCCC1 (stereo not drawn) [Compound 2ff] | – | – | – | – | 24 fold | – |
| CC(NC(C)(C)C)C(=O)c1ccc(Br)cc1 (stereo not drawn) [Compound 2h] | – | – | – | – | ~ 10 fold | – |
| Cc1ccc(C(=O)C(C)NC(C)(C)C)cc1 (stereo not drawn) [Compound 2i] | – | – | – | – | ~ 10 fold | – |
| CC(NC(C)(C)C)C(=O)c1ccc(F)c(F)c1 (stereo not drawn) [Compound 2j] | – | – | – | – | 24 fold | – |
| CC(NC(C)(C)C)C(=O)c1cc(Cl)cc(Cl)c1 (stereo not drawn) [Compound 2n] | – | – | – | – | 43 fold | – |
| CCC(NC(C)(C)C)C(=O)c1ccc(Cl)c(Cl)c1 (stereo not drawn) [Compound 2w] | – | – | – | – | 24 fold | – |
